Experimental data taken from PMC3189933, “Acylpeptide Hydrolase Inhibition as Targeted Strategy to Induce Proteasomal Down-Regulation” (PLoS ONE, 2011).
One block for each molecule: values may come before it. Where a SMILES comes first, the peptide text is derived from it. Where no end group is shown, it is not given here. The star is where a group is joined. Cbz = O=C(OCc1ccccc1)*

Columns and labels:
[1] = test system: polyubiquitinylated proteins in Caco-2 cells; experiment: Protein ubiquitinylation in Caco-2 cells (immunoblot); type: cell-based, human; conditions: 48 h, 200 µM SsCEI 4 or t10c12-CLA, mixture, 100 µM ebelactone, 10 µM MG132, species 66 kDa to 160 kDa
Source text: The following antibodies were used: anti-APEH antibody (sc-102311; Santa Cruz Biotechnology); anti-NF-κB/p65 antibody (Thermo Scientific); anti-p21Waf1 antibody (Exbio); pan Ab-5 anti-actin antibody (clone ACTN05, Thermo Scientific); and monoclonal antibodies against polyubiquitinylated proteins conjugated with horseradish peroxidase (FK2H, Enzo, Life Science). The ΔF508CFTR-3HA protein was detected with an anti HA monoclonal antibody (Covance).

[2] = test system: APEH in Caco-2 cells; experiment: APEH activity in Caco-2 cells; conditions: differentiated Caco-2 cells
Method: Porcine liver APEH activity was measured spectrophotometrically using the chromogenic substrate acetyl-Ala-pNA (Bachem). The reaction mixture (1 mL) containing pure APEH (38 ng) or an appropriate amount of cell extract in 50 mM Tris-HCl buffer pH 7.5 (Tris Buffer), was preincubated at 37°C for 2 min. Then, 1 mM acetyl-Ala-pNA was added and the release of p-nitroanilide (ε410 = 8800 M-1 cm-1) was measured by recording the absorbance increase at 410 nm on a Cary 100 Scan (Varian) UV/Vis spectrophotometer, equipped with a thermostated cuvette compartment. APEH activity was expressed in IU. The APEHSs activity was measured using acetyl-Leu-pNA (0.1 mM) (Sigma) as substrate. The reaction mixture (1 mL) containing the appropriate amount of enzyme in 25 mM Tris-HCl buffer pH 7.5, was preincubated at 80°C for 2 min. Then, 0.1 mM acetyl-Leu-pNA was added and the release of p-nitroanilide was measured, following the standard assay procedure described above.
Caco-2 cells (ATCC) were cultivated in DMEM supplemented with 10% FBS, 1 mM glutamine and 100 units/mL penicillin-streptomycin at 37°C in a humidified 5% CO2 atmosphere. The cells were studied between passages 12 and 22. The cells were split using trypsin-EDTA solution and plated in 6-well plates at a density of 8×10^4 cells/mL and the medium was replaced every 2–3 days. Under these conditions, the cells reached visual confluence after 7 days and the differentiated stage two weeks later. The differentiated cells were incubated for 48 h with the different substances.
Following the treatments, the BHK and Caco-2 cells were washed three times with ice cold phosphate-buffered saline and collected immediately at 4°C in lysis buffer (1% Triton X-100, 0.1% SDS, 20 mM Tris-HCl, pH 8.0, 150 mM NaCl, 0.5% sodium deoxycholate and complete protease inhibitors [Roche]). The lysates were centrifuged at 10,000×g for 15 min at 4°C. The protein concentrations in the clear supernatants were determined (BCA protein assay reagent kit; Pierce) before their use in enzymatic assays or SDS–PAGE.

[3] = target: T1, porcine APEH (Sus scrofa, UniProt P19205); experiment: Inhibition of porcine liver APEH, Ac-Ala-pNA substrate; type: biochemical; conditions: Ac-Ala-pNA, pre-incubated 30 min at 37°C
T1 construct: mammalian APEHs purified from both porcine liver and human colon carcinoma intestinal cells (Caco-2); purchased Takara; host or cells: porcine liver
T1 sequence (P19205 1-732): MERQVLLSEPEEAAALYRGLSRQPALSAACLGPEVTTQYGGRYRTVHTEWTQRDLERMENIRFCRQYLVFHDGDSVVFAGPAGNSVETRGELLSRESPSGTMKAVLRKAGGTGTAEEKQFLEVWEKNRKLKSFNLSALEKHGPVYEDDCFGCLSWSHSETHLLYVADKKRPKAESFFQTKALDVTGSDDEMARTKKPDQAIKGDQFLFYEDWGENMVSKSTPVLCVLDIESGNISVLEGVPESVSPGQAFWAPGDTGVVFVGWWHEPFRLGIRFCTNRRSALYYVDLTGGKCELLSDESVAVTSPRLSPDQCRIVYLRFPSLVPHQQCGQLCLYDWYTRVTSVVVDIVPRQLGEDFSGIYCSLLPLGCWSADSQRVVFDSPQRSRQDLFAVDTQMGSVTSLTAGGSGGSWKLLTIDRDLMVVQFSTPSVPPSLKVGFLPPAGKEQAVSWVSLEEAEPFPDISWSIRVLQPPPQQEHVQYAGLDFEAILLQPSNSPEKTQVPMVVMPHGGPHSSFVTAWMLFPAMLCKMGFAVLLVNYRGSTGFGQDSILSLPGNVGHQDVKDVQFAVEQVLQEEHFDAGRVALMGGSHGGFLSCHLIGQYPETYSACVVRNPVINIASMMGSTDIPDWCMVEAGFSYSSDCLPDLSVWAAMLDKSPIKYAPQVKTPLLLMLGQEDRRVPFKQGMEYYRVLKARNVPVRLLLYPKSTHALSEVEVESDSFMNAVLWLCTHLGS
Method: (§1) APEH activity was expressed in IU.
(§2) Protease inhibitor activities of the SsCEI peptides and the CLA isomers were carried out using a fixed amount of APEH or partially purified proteasome (3–5 nM and 0.12 mg/mL, respectively), and increasing the SsCEI and CLA isomer concentrations. Mixtures were pre-incubated for 30 min at 37°C before the addition of the substrate, and the enzymatic activities were followed as described above. Protease inhibitor activities of the SsCEI peptides and the CLA isomers were determined towards APEHSs. The protease and increasing concentrations of the inhibitors were mixed and preincubated for 30 min at 80°C before the addition of the specific substrate. The residual enzymatic activity was determined using the assay procedure described above.
(§3) All data were obtained from triplicate analyses of three different preparations. Data were presented as means ±S.D. Statistical analysis and IC50 values were calculated with the SigmaPlot 10.0 software through a non-linear curve-fitting method and using a simple binding isotherm equation. Groups were compared by Student's t test, and P<0.05 was considered as significant.

[4] = test system: APEHSs; experiment: Inhibition of S. solfataricus APEH (APEHSs), Ac-Leu-pNA substrate; type: biochemical, Sulfolobus solfataricus; conditions: increasing inhibitor concentrations, Ac-Leu-pNA, pre-incubated 30 min at 80°C
Method: as §1, §2, §3

[5] = test system: Caco-2 cells; experiment: LDH release cytotoxicity assay in Caco-2 cells; conditions: 48 h; for toxicity (LDH release) compared with MG132: 200 µM SsCEI 4 or t10c12-CLA, 100 µM ebelactone, MG132 10 µM
Method: The release of LDH was used as the marker for cell toxicity [48]. The culture supernatants were sampled at the end of the incubations and centrifuged (4,000×g, 5 min, and 4°C). Aliquots of the clear supernatant (10 µL) were incubated with 190 µL reaction buffer (200 mM Tris/HCl, pH 8.0, 0.7 mM p-iodonitrotetrazolium violet, 50 mM L-lactic acid, 0.3 mM phenazine methoxysulphate, 0.4 mM NAD,) for 30 min at 37°C. Absorbance was measured at 490 nm and the results were expressed as percentages of total LDH release from control cultures treated with 1% (w/v) Triton X-100 and calculated as: [(experimental value - blank value)/(total lysis -blank value)−100].

[6] = target: T1, porcine APEH; experiment: RP-HPLC analysis of SsCEI 4 incubated with the target enzyme; type: in vitro ADME; conditions: 50 mM Tris pH 7.5, 37°C, up to 2 h, RP-HPLC C18, UV, printed 4 µM SsCEI 4 and 100 µM APEH
Method: The experiments were conducted at 37°C in 50 mM Tris buffer, pH 7.5. Solutions of SsCEI 4 and porcine APEH were incubated for up to 2 h at optimal concentrations (4 µM SsCEI 4 and 100 µM APEH) to guarantee a high degree of enzymatic inhibition. At specific time intervals, 195 µL aliquots were taken, and the reaction was stopped by addition of 5 µL TFA. The samples were then analysed directly by reverse-phase HPLC (Dionex BioLC) on a μBondapak C18 column (3.9×300 mm, Waters), eluted with a linear gradient (0–60% acetonitrile in 0.1% TFA) at a flow rate of 1 ml/min. Control peptide samples were incubated in the absence of the purified enzymes and run in parallel.

[7] = Enzymatic stability in 10% FBS; type: in vitro ADME; conditions: method as ref 19, data not shown
[8] = target: T2, human APEH (Homo sapiens, UniProt P13798); experiment: Inhibition of human APEH purified from Caco-2 cells; type: biochemical; conditions: human APEH from Caco-2 cells, Ac-Ala-pNA; data not shown
T2 construct: Partial purification of human APEH and proteasome was carried out from protein extracts of Caco-2 cell; endogenous in cells; host or cells: Caco-2
T2 sequence (P13798 1-732): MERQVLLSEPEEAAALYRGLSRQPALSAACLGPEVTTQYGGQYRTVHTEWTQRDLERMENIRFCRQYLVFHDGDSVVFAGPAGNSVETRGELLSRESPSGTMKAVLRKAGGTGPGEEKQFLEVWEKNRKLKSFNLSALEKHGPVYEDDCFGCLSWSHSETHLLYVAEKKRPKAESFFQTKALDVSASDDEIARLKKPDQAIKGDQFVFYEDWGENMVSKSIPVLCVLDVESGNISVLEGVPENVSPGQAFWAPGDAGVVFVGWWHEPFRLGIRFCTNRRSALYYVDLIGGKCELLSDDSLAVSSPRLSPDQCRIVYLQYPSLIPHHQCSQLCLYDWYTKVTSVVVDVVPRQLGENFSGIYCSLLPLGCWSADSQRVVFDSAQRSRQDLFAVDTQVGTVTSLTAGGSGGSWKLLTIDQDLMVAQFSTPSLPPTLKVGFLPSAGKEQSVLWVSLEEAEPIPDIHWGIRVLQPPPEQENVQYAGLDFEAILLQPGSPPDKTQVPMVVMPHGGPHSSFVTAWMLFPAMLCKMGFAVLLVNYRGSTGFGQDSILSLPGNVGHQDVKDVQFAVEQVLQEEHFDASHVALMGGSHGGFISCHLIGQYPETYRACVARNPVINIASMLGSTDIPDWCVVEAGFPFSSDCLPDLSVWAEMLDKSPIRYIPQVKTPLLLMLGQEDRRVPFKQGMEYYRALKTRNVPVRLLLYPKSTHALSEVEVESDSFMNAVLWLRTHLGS
Method: APEH from Sulfolobus solfataricus was purified as previously reported. Partial purification of human APEH and proteasome was carried out from protein extracts of Caco-2 cell. Briefly, protein extracts (500 µg) were fractionated by gel filtration chromatography on a Superdex 200 PC 3.2/30 column connected to a SMART System (Pharmacia) equilibrated in buffer 50 mM Tris-HCl, pH 7.5, 100 mM NaCl, at 0.1 mL/min. The eluted fractions were assayed using the specific substrates for APEH and the proteasome. The active fractions were collected and used for further analysis.
as §1, §2

[9] = test system: BHK cells; experiment: Cytotoxicity in BHK cells; type: cell-based, Baby Hamster; conditions: 100 µM, 24 h or 48 h; data not shown
Method: The cells were plated in 12-well plates, to a confluence of 60% for the 24-h incubations, and 40% for 48-h exposure to PIs. These treatments were initiated 24-h after the plating of the cells. Phase-contrast images of the cells were taken just before the lysis of the cells for protein analysis, using a Lica DM6000 inverted microscope.

[10] = target: T1, porcine APEH; experiment: APEH inhibition in a reaction mixture containing the entire set of proteases; type: biochemical; conditions: mixture with trypsin, α-chymotrypsin, elastase, carboxypeptidase Y, subtilisin, thrombin; data not shown
[11] = target: T1, porcine APEH; experiment: Time-dependent inhibition of APEH; type: biochemical; conditions: pre-incubation at least 20 min at 37°C, then diluted 1:5 into assay mixture with substrate
Method: The time-dependent inhibition of SsCEI 4 and t10c12-CLA towards APEH was assessed. Mixtures containing appropriate amounts of each inhibitor and of APEH were pre-incubated for 20 min at 37°C; they were then diluted (1∶5) into the standard assay mixture, which contained the substrate only. The enzymatic activity was followed as described above. Control samples were prepared by pre-incubating the same amounts of APEH without the inhibitors and then diluted in the standard assay mixture.

[12] = Thermal CD spectroscopy; type: physicochemical; conditions: CD 37°C to 77°C in 10°C steps, 5 mM Tris–HCl pH 7.5
Method: CD spectra were obtained on a Jasco J-715 spectropolarimeter with 400 µL of 8.0×10^-7 M protein in 5 mM Tris–HCl pH 7.5. Hellman quartz cells of 0.1-cm-path length were used in the far UV (190–250 nm). The temperature of the sample cell was regulated by a PTC-348 WI thermostat and thermal CD was performed from 250 to 195 nm by raising the cell temperature from 37°C to 77°C. The thermal CD spectra were signal-averaged by combining three scans and the baseline was corrected by subtracting a buffer spectrum. The samples were then cooled back to 37°C to monitor the final folding of the peptides.

[13] = target: bovine α-chymotrypsin (Bos taurus, UniProt P00766); experiment: Serine protease selectivity panel: α-chymotrypsin; type: biochemical; conditions: increasing peptide concentrations, hyperbolic fit (Figure S3); read-out: IC50 towards bovine α-chymotrypsin
[14] = Gel filtration (size-exclusion) analysis of oligomerization; type: physicochemical; conditions: 100 µM peptide
Method: Gel filtration chromatography was performed on a BioSep SEC-S2000 column equilibrated with 50 mM phosphate buffer pH 6.8, at a flow rate of 1.0 mL/min. A standard curve was built using a set of synthetic peptides with molecular weights between 1.500 amu and 2.500 amu. For this purpose, peptide aliquots were injected onto the column and a plot of KD versus log10 molecular weights (MW) was obtained, where KD = (Ve-Vo)/(VT-Vo), Ve is the elution volume of the sample, and VT and Vo are the total and void volumes of the column, respectively.

[15] = Stability in aqueous solution; type: physicochemical; conditions: at the concentrations required for CD analyses

Molecule: CC(C)C[C@@H](C=O)NC(=O)[C@H](CC(C)C)NC(=O)[C@H](CC(C)C)NC(=O)OCc1ccccc1 [MG132] (Cbz-Leu-Leu-Leu-aldehyde)
polyubiquitin conjugates in cell extract [1]: presence of high-molecular-mass immunoreactive species | effect on APEH activity in Caco-2 cells ([2]; MG132 10 µM, 48 h): no detectable effects

effect on porcine APEH activity [3]: ineffective
Molecule: CCCCCC/C=C/C=C\CCCCCCCC(=O)O [c9t11-CLA, cis9-trans11 CLA]
effect on APEHSs activity [4]: no significant modulatory effect

Molecule: CC[C@@H](C)[C@@H](O)[C@H](C)C(=O)[C@H](C)/C=C(\C)C[C@H](C)[C@@H]1OC(=O)[C@H]1CC [ebelactone]
toxicity (LDH release) compared with MG132 [5]: significantly lower than that observed in culture incubated with MG132 | polyubiquitin conjugates in cell extract [1]: presence of high-molecular-mass immunoreactive species

Molecule: TILAEIKNINAD-NH2 [SsCEI 4]
stability of peptide incubated with APEH (degradation / adducts) [6]: neither peptide degradation nor covalent binding with APEH occurred | enzymatic stability in 10% FBS [7]: completely stable for at least one week | IC50 towards human APEH relative to porcine APEH [8]: Comparable | cytotoxic effects in BHK cells [9]: without any cytotoxic effects | toxicity (LDH release) compared with MG132 [5]: significantly lower than that observed in culture incubated with MG132 | cytotoxic effect (LDH activity levels) ([5]; up to highest concentration 200 µM): not associated with any cytotoxic effect | inhibition efficiency and Ki towards APEH in presence of the entire protease set [10]: comparable to those measured in the presence of the APEH alone | decrease of APEH activity in Caco-2 cells ([2]; 200 µM, 48 h (maximum effect)): 70% | inhibition of APEH after pre-incubation with the enzyme [11]: 100%

structural stability with temperature (CD) [12]: considerable structural stability | IC50 towards human APEH relative to porcine APEH [8]: Comparable | IC50 [13]: 21.9 ± 6.4 µM
Molecule: TILLEIKNINAD-NH2 [SsCEI 2]

Molecule: YAIDTILA EIKNINAD [SsCEI 3]
structural stability with temperature (CD) [12]: considerable structural stability | Measured mass value (apparent MW by gel filtration) ([14]; BioSep SEC-S2000, 50 mM phosphate pH 6.8, Da±SD, three independent determinations): 2012±150 Da | oligomerization state ([14]; size-exclusion chromatography): essentially monomers | effect on APEHSs activity [4]: no detectable decrease

stability in aqueous solution [15]: poor stability in aqueous solution
Molecule: YAIDTILLEIKNINAD-NH2 [SsCEI 1]
